In US20090148391A1, “[…] ACTIVE PREPARATIONS COMPRISING […] DERIVATIVES AND FURTHER SKIN AND/OR HAIR LIGHTENING AND/OR SENILE KERATOSIS REDUCING COMPOUNDS” (SYMRISE GmbH & Co. KG, priority 2006, published 2009):

How the values were obtained:
[1] = system: B16V mouse melanoma cells; details: cited from earlier work
3T3 firbrosarcoma cells = details: cited from earlier work
fungal-tyrosinase = experiment: Tyrosinase-Assay: oxidation of L-DOPA to dopachrome with or without test substance, photometric detection at 475 nm; format: biochemical; details: weight ratio of the mixture; 50 u/ml fungal-tyrosinase, pH 6.8, 37° C., L-DOPA 0.1 mg/ml
Procedure: The principle of the assay is to oxidise L-DOPA to dopachrome with or without the test substance under physiological conditions in a controlled reaction. Dopachrome and dopaquinone is detected via photometric detection methods. Commercially available fungal-tyrosinase is used for testing the enzyme activity and the correlating inhibition of melanin production.
The enzymatic reaction was conducted with or without a potential inhibitor of the tyrosinase of constituents (a) and (b), such as styrylresorcinol of formula 3 (more than 99% purity) of constituent (a) alone, specific compounds of the constituent b) selected from the group consisting of (i) chelating agents, (ii) phenolic derivatives, plant extracts with an amount of phenolic derivatives and (iii) organic acid derivatives alone, as well as mixtures thereof.
The concentrations of the inhibitor or a mixture thereof range from 0.1 to 1000 μg/ml. The enzyme activity was adjusted to 50 u/ml fungal-tyrosinase in 66.7 mM phosphate buffer (pH=6.8). The reaction mixture was incubated for 10 minutes in a 96-well microtiter plate in a horizontal agitator at 37° C. Then L-DOPA (end concentration: 0.1 mg/ml). The enzymatic conversion to dopachrome is related to the inhibition activity of the single test substances or the mixture thereof, which is shown in a brown discolouration, which can be detected at 475 nm. […]

SMILES | tyrosinase-inhibiting activity [1] | tyrosinase-inhibiting activity (3T3 firbrosarcoma cells) | Ratio 4-(1-phenylthyl)-1,3-dihydroxybenzene CARN 85-27-8:(i) Chelating Agent showing synergistic enhanced lightening activity in the tyrosinase assay (fungal-tyrosinase)
CC(c1ccccc1)c1ccc(O)cc1O (stereo not drawn) [styrylresorcinol of the formula 3, 4-(1-phenylethyl)-1,3-dihydroxybenzene] | clearly demonstrated | clearly demonstrated | 
O=c1cc(CO)occ1O [Kojic acid, 5-hydroxy-2-hydroxymethyl-4-pyranone] |  |  | 1.3
